In patent US10875875B2, “Propionic acid derivatives and methods of use thereof” (Aviara Pharmaceuticals, Inc., priority 2017, dated 2020) one finds IC50 data, which are given here for 31 compounds.

A value given as a limit tells only on which side of the number the result lay.

The target in this assay is α4β1 (Homo sapiens, UniProt P05556+P13612). Nature of the assay: α4β1 integrin inhibition, IC50. The class given is binding. As to conditions: read-out: α4β1 IC50.
Chain of α4β1 (P13612 34-1032): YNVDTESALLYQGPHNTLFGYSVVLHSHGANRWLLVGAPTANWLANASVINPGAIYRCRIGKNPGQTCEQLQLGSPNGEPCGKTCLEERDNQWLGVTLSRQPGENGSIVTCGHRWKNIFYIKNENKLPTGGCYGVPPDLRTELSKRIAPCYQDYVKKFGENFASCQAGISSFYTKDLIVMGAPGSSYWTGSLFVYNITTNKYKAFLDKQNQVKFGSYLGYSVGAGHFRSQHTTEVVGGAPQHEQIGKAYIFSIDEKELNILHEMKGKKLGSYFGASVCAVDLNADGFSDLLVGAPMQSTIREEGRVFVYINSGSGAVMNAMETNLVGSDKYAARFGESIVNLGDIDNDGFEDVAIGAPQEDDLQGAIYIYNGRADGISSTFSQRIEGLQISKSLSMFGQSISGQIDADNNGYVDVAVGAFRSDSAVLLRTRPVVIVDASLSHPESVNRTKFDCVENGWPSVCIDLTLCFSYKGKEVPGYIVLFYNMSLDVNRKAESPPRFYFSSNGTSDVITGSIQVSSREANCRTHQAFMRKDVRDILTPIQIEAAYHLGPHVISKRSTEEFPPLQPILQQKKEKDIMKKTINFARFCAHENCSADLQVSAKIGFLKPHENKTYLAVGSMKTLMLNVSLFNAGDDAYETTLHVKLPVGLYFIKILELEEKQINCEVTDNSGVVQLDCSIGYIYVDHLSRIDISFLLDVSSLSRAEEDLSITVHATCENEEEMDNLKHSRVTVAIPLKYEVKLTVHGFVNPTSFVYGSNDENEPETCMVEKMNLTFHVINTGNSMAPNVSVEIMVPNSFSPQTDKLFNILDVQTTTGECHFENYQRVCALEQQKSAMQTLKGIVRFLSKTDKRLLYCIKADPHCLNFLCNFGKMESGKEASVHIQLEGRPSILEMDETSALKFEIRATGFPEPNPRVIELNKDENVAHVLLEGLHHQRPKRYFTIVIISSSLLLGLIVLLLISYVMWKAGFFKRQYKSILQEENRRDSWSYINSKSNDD
Chain of α4β1 (P05556 21-798): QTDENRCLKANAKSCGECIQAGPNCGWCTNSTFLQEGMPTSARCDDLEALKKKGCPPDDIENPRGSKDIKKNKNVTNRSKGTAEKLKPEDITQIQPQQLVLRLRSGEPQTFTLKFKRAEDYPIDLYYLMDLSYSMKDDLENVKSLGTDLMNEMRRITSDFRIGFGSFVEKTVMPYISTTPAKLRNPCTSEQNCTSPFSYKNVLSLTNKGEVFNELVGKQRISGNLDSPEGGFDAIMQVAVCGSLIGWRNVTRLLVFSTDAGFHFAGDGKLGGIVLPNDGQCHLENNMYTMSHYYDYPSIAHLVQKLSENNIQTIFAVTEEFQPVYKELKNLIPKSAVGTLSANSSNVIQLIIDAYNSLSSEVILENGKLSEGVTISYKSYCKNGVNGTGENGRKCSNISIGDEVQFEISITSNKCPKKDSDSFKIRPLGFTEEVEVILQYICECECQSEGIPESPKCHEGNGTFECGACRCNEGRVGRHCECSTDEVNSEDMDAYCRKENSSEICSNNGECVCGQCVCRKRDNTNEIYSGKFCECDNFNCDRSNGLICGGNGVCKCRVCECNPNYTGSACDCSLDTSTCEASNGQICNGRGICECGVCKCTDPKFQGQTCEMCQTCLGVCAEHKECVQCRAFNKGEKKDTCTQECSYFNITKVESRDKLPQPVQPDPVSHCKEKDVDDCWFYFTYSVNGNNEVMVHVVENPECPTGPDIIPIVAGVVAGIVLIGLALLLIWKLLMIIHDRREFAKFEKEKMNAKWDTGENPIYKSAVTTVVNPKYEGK

With `Cc1ccccc1-c1cccc([C@H](CC(=O)O)NC(=O)Nc2c(O)ccn(C)c2=O)c1` [1-598, sodium (S)-3-(3-(1-methyl-4-oxido-2-oxo-1,2-dihydropyridin-3-yl)ureido)-3-(2′-methylbiphenyl-3-yl)propanoate], the IC50 is under 20 nM.

Regarding `COc1cc(-c2ccccc2)cc([C@H](CC(=O)O)NC(=O)Nc2c(O)ccn(C)c2=O)c1` [1-558, sodium (S)-3-(5-methoxybiphenyl-3-yl)-3-(3-(1-methyl-4-oxido-2-oxo-1,2-dihydropyridin-3-yl)ureido)propanoate], the 50% inhibitory concentration (IC50) is under 20 nM.

Consider `COc1ccc([C@H](CC(=O)O)NC(=O)Nc2c(O)c(C)cn(C)c2=O)cc1-c1ccccc1` [1-449, sodium (S)-3-(3-(1,5-dimethyl-4-oxido-2-oxo-1,2-dihydropyridin-3-yl)ureido)-3-(6-methoxybiphenyl-3-yl)propanoate], for which the IC50 is under 200 nM.

For the compound `Cc1cccc(-c2cccc([C@H](CC(=O)O)NC(=O)Nc3c(O)c(C)cn(C)c3=O)c2)c1` [1-451, sodium (S)-3-(3-(1,5-dimethyl-4-oxido-2-oxo-1,2-dihydropyridin-3-yl)ureido)-3-(3′-methylbiphenyl-3-yl)propanoate], the 50% inhibitory concentration (IC50) is under 200 nM.

On to `Cn1ccc(O)c(NC(=O)N[C@@H](CC(=O)O)c2ccc(-c3cccc(OC(F)(F)F)c3)s2)c1=O` [1-601, sodium (S)-3-(3-(1-methyl-4-oxido-2-oxo-1,2-dihydropyridin-3-yl)ureido)-3-(5-(3-(trifluoromethoxy)phenyl)thiophen-2-yl)propanoate], for which the IC50 was under 20 nM.

Regarding `Cn1c2c(c(O)c(NC(=O)N[C@@H](CC(=O)O)c3cccc(-c4ccc(F)cc4F)c3)c1=O)CCC2` [1-513, sodium (S)-3-(2′,4′-difluorobiphenyl-3-yl)-3-(3-(1-methyl-4-oxido-2-oxo-2,5,6,7-tetrahydro-1H-cyclopenta[b]pyridin-3-yl)ureido)propanoate], the IC50 is under 20 nM.

For the compound `Cc1ccccc1-c1cccc([C@H](CC(=O)O)NC(=O)Nc2c(O)c(C)cn(C)c2=O)c1` [1-440, sodium (S)-3-(3-(1,5-dimethyl-4-oxido-2-oxo-1,2-dihydropyridin-3-yl)ureido)-3-(2′-methylbiphenyl-3-yl)propanoate], the IC50 was under 200 nM.

Turning to `COc1cccc(-c2cc([C@H](CC(=O)O)NC(=O)Nc3c(O)cc(C)n(C)c3=O)ccc2C)c1` [1-569, sodium (S)-3-(3-(1,6-dimethyl-4-oxido-2-oxo-1,2-dihydropyridin-3-yl)ureido)-3-(3′-methoxy-6-methylbiphenyl-3-yl)propanoate], the IC50 is under 20 nM.

`Cc1cc(C)cc(-c2cccc([C@H](CC(=O)O)NC(=O)Nc3c(O)c(C)cn(C)c3=O)c2)c1` [1-454, sodium (S)-3-(3-(1,5-dimethyl-4-oxido-2-oxo-1,2-dihydropyridin-3-yl)ureido)-3-(3′,5′-dimethylbiphenyl-3-yl)propanoate]: the concentration for half-maximal inhibition (IC50) was under 200 nM.

Consider `COc1cc([C@H](CC(=O)O)NC(=O)Nc2c(O)c(C)cn(C)c2=O)cc(-c2ccccc2)c1OC` [1-475, sodium (S)-3-(5,6-dimethoxybiphenyl-3-yl)-3-(3-(1,5-dimethyl-4-oxido-2-oxo-1,2-dihydropyridin-3-yl)ureido)propanoate], for which the IC50 is under 200 nM.

Turning to `Cc1ccc(C)c(-c2cccc([C@H](CC(=O)O)NC(=O)Nc3c(O)c(C)cn(C)c3=O)c2)c1` [1-459, sodium (S)-3-(3-(1,5-dimethyl-4-oxido-2-oxo-1,2-dihydropyridin-3-yl)ureido)-3-(2′,5′-dimethylbiphenyl-3-yl)propanoate], the half-maximal inhibitory concentration (IC50) was under 20 nM.

For `Cc1cn(C)c(=O)c(NC(=O)N[C@@H](CC(=O)O)c2cccc(-c3ccccc3C(F)(F)F)c2)c1O` [1-474, sodium (S)-3-(3-(1,5-dimethyl-4-oxido-2-oxo-1,2-dihydropyridin-3-yl)ureido)-3-(2′-(trifluoromethyl)biphenyl-3-yl)propanoate], the IC50 is under 200 nM.

Consider `Cc1cn(C)c(=O)c(NC(=O)N[C@@H](CC(=O)O)c2cccc(-c3ccccc3F)c2)c1O` [1-441, sodium (S)-3-(3-(1,5-dimethyl-4-oxido-2-oxo-1,2-dihydropyridin-3-yl)ureido)-3-(2′-fluorobiphenyl-3-yl)propanoate], for which the concentration for half-maximal inhibition (IC50) was under 20 nM.

Turning to `Cc1noc(C)c1-c1cccc([C@H](CC(=O)O)NC(=O)Nc2c(O)cc(C)n(C)c2=O)c1` [1-609, sodium (S)-3-(3-(1,6-dimethyl-4-oxido-2-oxo-1,2-dihydropyridin-3-yl)ureido)-3-(3-(3,5-dimethylisoxazol-4-yl)phenyl)propanoate], the IC50 is under 20 nM.

Consider `Cc1cn(C)c(=O)c(NC(=O)N[C@@H](CC(=O)O)c2cccc(-c3ccccc3OC(F)(F)F)c2)c1O` [1-467, sodium (S)-3-(3-(1,5-dimethyl-4-oxido-2-oxo-1,2-dihydropyridin-3-yl)ureido)-3-(2′-(trifluoromethoxy)biphenyl-3-yl)propanoate], for which the IC50 is under 200 nM.

For `Cn1ccc(O)c(NC(=O)N[C@@H](CC(=O)O)c2ccc(-c3ccc(F)cc3F)cc2)c1=O` [1-621, sodium (S)-3-(2′,4′-difluorobiphenyl-4-yl)-3-(3-(1-methyl-4-oxido-2-oxo-1,2-dihydropyridin-3-yl)ureido)propanoate], the IC50 was under 20 nM.

Regarding `Cn1ccc(O)c(NC(=O)N[C@@H](CC(=O)O)c2cccc(-c3ccccc3)c2)c1=O` [1-505, sodium (S)-3-(biphenyl-3-yl)-3-(3-(1-methyl-4-oxido-2-oxo-1,2-dihydropyridin-3-yl)ureido)propanoate], the 50% inhibitory concentration (IC50) is under 20 nM.

With `Cc1cscc1-c1ccc([C@H](CC(=O)O)NC(=O)Nc2c(O)cc(C)n(C)c2=O)s1` [1-585, sodium (S)-3-(3-(1,6-dimethyl-4-oxido-2-oxo-1,2-dihydropyridin-3-yl)ureido)-3-(4′-methyl-2,3′-bithiophen-5-yl)propanoate], the IC50 is under 20 nM.

For the compound `CCn1ccc(O)c(NC(=O)N[C@@H](CC(=O)O)c2cccc(-c3ccc(F)cc3F)c2)c1=O` [1-531, sodium (S)-3-(2′,4′-difluorobiphenyl-3-yl)-3-(3-(1-ethyl-4-oxido-2-oxo-1,2-dihydropyridin-3-yl)ureido)propanoate], the half-maximal inhibitory concentration (IC50) was under 20 nM.

Turning to `COc1ccc([C@H](CC(=O)O)NC(=O)Nc2c(O)ccn(C)c2=O)cc1-c1cccc(OC(F)(F)F)c1` [1-535, sodium (S)-3-(6-methoxy-3′-(trifluoromethoxy)biphenyl-3-yl)-3-(3-(1-methyl-4-oxido-2-oxo-1,2-dihydropyridin-3-yl)ureido)propanoate], the IC50 is under 20 nM.

`Cc1cn(C)c(=O)c(NC(=O)N[C@@H](CC(=O)O)c2cccn2-c2ccccc2)c1O` [1-498, sodium (S)-3-(3-(1,5-dimethyl-4-oxido-2-oxo-1,2-dihydropyridin-3-yl)ureido)-3-(1-phenyl-1H-pyrrol-2-yl)propanoate]: the half-inhibitory concentration (IC50) was over 200 nM.

Regarding `COc1cccc(-c2cccc([C@H](CC(=O)O)NC(=O)Nc3c(O)cc(C)n(C)c3=O)c2)c1` [1-553, sodium (S)-3-(3-(1,6-dimethyl-4-oxido-2-oxo-1,2-dihydropyridin-3-yl)ureido)-3-(3′-methoxybiphenyl-3-yl)propanoate], the IC50 was under 20 nM.

With `COc1ccc(-c2cccc([C@H](CC(=O)O)NC(=O)Nc3c(O)ccn(C)c3=O)c2)cn1` [1-508, sodium (S)-3-(3-(6-methoxypyridin-3-yl)phenyl)-3-(3-(1-methyl-4-oxido-2-oxo-1,2-dihydropyridin-3-yl)ureido)propanoate], the IC50 is under 20 nM.

With `Cn1ccc(O)c(NC(=O)N[C@@H](CC(=O)O)c2cc(F)cc(-c3ccc(F)cc3F)c2)c1=O` [1-633, sodium (S)-3-(3-(1-methyl-4-oxido-2-oxo-1,2-dihydropyridin-3-yl)ureido)-3-(2′,4′,5-trifluorobiphenyl-3-yl)propanoate], the concentration for half-maximal inhibition (IC50) was under 20 nM.

As for `COc1ccc(-c2cccc([C@H](CC(=O)O)NC(=O)Nc3c(O)c(C)cn(C)c3=O)c2)cc1OC` [1-469, sodium (S)-3-(3′,4′-dimethoxybiphenyl-3-yl)-3-(3-(1,5-dimethyl-4-oxido-2-oxo-1,2-dihydropyridin-3-yl)ureido)propanoate], the half-maximal inhibitory concentration (IC50) is under 20 nM.

Consider `COc1cccc(-c2cc(OC)cc([C@H](CC(=O)O)NC(=O)Nc3c(O)cc(C)n(C)c3=O)c2)c1` [1-567, sodium (S)-3-(3′,5-dimethoxybiphenyl-3-yl)-3-(3-(1,6-dimethyl-4-oxido-2-oxo-1,2-dihydropyridin-3-yl)ureido)propanoate], for which the half-inhibitory concentration (IC50) is under 20 nM.

On to `Cc1ccc([C@H](CC(=O)O)NC(=O)Nc2c(O)ccn(C)c2=O)cc1-c1c(C)cccc1C` [1-545, sodium (S)-3-(3-(1-methyl-4-oxido-2-oxo-1,2-dihydropyridin-3-yl)ureido)-3-(2′,6,6′-trimethylbiphenyl-3-yl)propanoate], for which the IC50 was under 20 nM.

As to `Cc1cn(C)c(=O)c(NC(=O)N[C@@H](CC(=O)O)c2ccc(-c3ccc(F)cc3F)cc2)c1O` [1-623, sodium (S)-3-(2′,4′-difluorobiphenyl-4-yl)-3-(3-(1,5-dimethyl-4-oxido-2-oxo-1,2-di hydropyridin-3-yl)ureido)propanoate], the IC50 is under 20 nM.

Take `COc1ccc(C)c(-c2cccc([C@H](CC(=O)O)NC(=O)Nc3c(O)c(C)cn(C)c3=O)c2)c1` [1-490, sodium (S)-3-(3-(1,5-dimethyl-4-oxido-2-oxo-1,2-dihydropyridin-3-yl)ureido)-3-(5′-methoxy-2′-methylbiphenyl-3-yl)propanoate]: the IC50 is under 200 nM.

Take `Cc1cn(C)c(=O)c(NC(=O)NC(CC(=O)O)c2cccc(-c3ccc(F)c(Cl)c3)c2)c1O` (stereo not shown) [1-484, sodium 3-(3′-chloro-4′-fluorobiphenyl-3-yl)-3-(3-(1,5-dimethyl-4-oxido-2-oxo-1,2-dihydropyridin-3-yl)ureido)propanoate]: the IC50 was under 200 nM.

Consider `Cc1ccccc1-c1ccc([C@H](CC(=O)O)NC(=O)Nc2c(O)ccn(C)c2=O)cc1` [1-616, sodium (S)-3-(3-(1-methyl-4-oxido-2-oxo-1,2-dihydropyridin-3-yl)ureido)-3-(2′-methylbiphenyl-4-yl)propanoate], for which the half-maximal inhibitory concentration (IC50) is under 20 nM.

Usually IC50 stands for the point on the concentration scale where inhibition reaches its midpoint.
